Experimental data reported in ChEMBL document CHEMBL1201862, “PubChem BioAssay data set” (2004).
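96-well plates; 48 h exposure; 5 concentrations. Endpoints by linear interpolation between flanking doses. Not reached: highest tested concentration assigned. Here, GI50 denotes the concentration required for 50% inhibition of growth.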 The source made the active and inactive calls. Cut-off read from the data, not from the text of the source: active = GI50 up to about 1.1 µM and inactive = higher.

Legend:
Assay in all cases: NCI tumour cell line growth inhibition, 48 h
[1] = tested on: HL-60
[2] = tested on: NCI-H460
[3] = tested on: UACC-257
[4] = tested on: U-251
[5] = tested on: NCI-H522
[6] = tested on: RXF 393
[7] = tested on: OVCAR-5
[8] = tested on: SF-295
[9] = tested on: SNB-75
[10] = tested on: M19-MEL
[11] = tested on: RXF 631
[12] = tested on: HT-29
[13] = tested on: SK-OV-3
[14] = tested on: A498
[15] = tested on: MOLT-4
[16] = tested on: NCI-H23
[17] = tested on: M14
[18] = tested on: OVCAR-8
[19] = tested on: SNB-19
[20] = tested on: UACC-62
[21] = tested on: RPMI-8226
[22] = tested on: SNB-78
[23] = tested on: TK-10
[24] = tested on: HCC 2998
[25] = tested on: K562
[26] = tested on: 786-0
[27] = tested on: OVCAR-4
[28] = tested on: SN12C
[29] = tested on: IGROV-1
[30] = tested on: DMS-273
[31] = tested on: HOP-62
[32] = tested on: DLD-1
[33] = tested on: XF498
[34] = tested on: DMS-114
[35] = tested on: SK-MEL-28
[36] = tested on: SF-539
[37] = tested on: HCT-15
[38] = tested on: ACHN
[39] = tested on: SW-620
[40] = tested on: SK-MEL-5
[41] = tested on: A549
[42] = tested on: HCT-116
[43] = tested on: LXFL 529
[44] = tested on: KM-20L2
[45] = tested on: Malme-3M
[46] = tested on: SF-268
[47] = tested on: NCI-H226
[48] = tested on: EKVX
[49] = tested on: OVCAR-3
[50] = tested on: KM12
[51] = tested on: COLO 205
[52] = tested on: CAKI-1
[53] = tested on: HOP-18
[54] = tested on: UO-31
[55] = tested on: SR
[56] = tested on: LOX IMVI
[57] = tested on: HOP-92

`NCCSSCc1ccccc1CSSCCN` was tested, and the GI50 [1] was 8.02 µM (inactive), the GI50 [2] was > 100 µM (inactive) and the GI50 [3] was > 100 µM (inactive). For the same compound, the GI50 [4] was > 100 µM (inactive), the GI50 [5] was 14.1 µM (inactive) and the GI50 [6] was > 100 µM (inactive). The GI50 [7] was > 100 µM (inactive), the GI50 [8] was > 100 µM (inactive) and the GI50 [9] was > 100 µM (inactive). The GI50 [10] was 29.2 µM (inactive), the GI50 [11] was > 100 µM (inactive) and the GI50 [12] was 97.1 µM (inactive). For the same compound, the GI50 [13] was > 100 µM (inactive), the GI50 [14] was > 100 µM (inactive) and the GI50 [15] was 30.5 µM (inactive). The GI50 [16] was > 100 µM (inactive), the GI50 [17] was > 100 µM (inactive) and the GI50 [18] was 66.2 µM (inactive). The GI50 [19] was > 100 µM (inactive), the GI50 [20] was > 100 µM (inactive) and the GI50 [21] was 67.8 µM (inactive). For the same compound, the GI50 [22] was > 100 µM (inactive), the GI50 [23] was > 100 µM (inactive) and the GI50 [24] was 50.1 µM (inactive). For the same compound, the GI50 [25] was 16.4 µM (inactive), the GI50 [26] was > 100 µM (inactive) and the GI50 [27] was > 100 µM (inactive). The GI50 [28] was > 100 µM (inactive), the GI50 [29] was > 100 µM (inactive) and the GI50 [30] was 48.9 µM (inactive). The GI50 [31] was > 100 µM (inactive), the GI50 [32] was 48.4 µM (inactive) and the GI50 [33] was > 100 µM (inactive). The GI50 [34] was > 100 µM (inactive), the GI50 [35] was > 100 µM (inactive) and the GI50 [36] was > 100 µM (inactive). For the same compound, the GI50 [37] was 38.5 µM, the GI50 [38] was 8.65 µM (inactive) and the GI50 [39] was 20.4 µM (inactive). The GI50 [40] was 57.9 µM (inactive), the GI50 [41] was > 100 µM (inactive) and the GI50 [42] was > 100 µM (inactive). For the same compound, the GI50 [43] was 50 µM (inactive), the GI50 [44] was > 100 µM (inactive) and the GI50 [45] was 72.3 µM (inactive). The GI50 [46] was > 100 µM (inactive), the GI50 [47] was > 100 µM (inactive) and the GI50 [48] was > 100 µM (inactive). The GI50 [49] was > 100 µM (inactive), the GI50 [50] was > 100 µM (inactive) and the GI50 [51] was > 100 µM (inactive). The GI50 [52] was > 100 µM (inactive), the GI50 [53] was > 100 µM (inactive) and the GI50 [54] was > 100 µM (inactive). For the same compound, the GI50 [55] was 41.7 µM (inactive), the GI50 [56] was 14 µM (inactive) and the GI50 [57] was > 100 µM (inactive).
